From patent US20150030668A1 (priority 2012, published 2015)
Where two headings read alike, the source gives them in different places.

Key:
[1] = rat liver, CO-60, control (water) = 0%
Description: The tissue from the control animals (water) served as the 100% of the toxin remaining in the tissue. The animals receiving: • a.

[2] = test system: aflatoxin B1-induced hepatic nodules or tumors; settings: mouse, in vivo; cited from earlier work
[3] = test system: Mycobacterium tuberculosis; settings: NAC at 10 millimolar

| Structure (SMILES) | removal of the toxin [1] [%] | removal of the toxin ([1]; listed as Intravenous glutathione) [%] | decreasing the incidence or size of hepatic nodules or tumors [2] | CFU/ml reduced to [3] |
| --- | --- | --- | --- | --- |
| N[C@@H](CCC(=O)N[C@@H](CS)C(=O)NCC(=O)O)C(=O)O [Plain glutathione, glutathione (reduced)] | 10 | 70 | no benefit | – |
| CC(=O)N[C@@H](CS)C(=O)O [NAC, N-acetyl cysteine] | – | – | – | 8,000 CFU/ml |
